Experimental data published in patent publication US20070128217A1 (priority 2003, published 2007).

Key:
[1] = system: control sera (pooled serum of ten healthy LUMC hospital workers; commercial negative donor pooled serum from the Dutch bloodbank); format: binding, human; set-up: Binding of Control serum LUMC to linear peptides / Binding of Control serum Blood-bank to linear peptides / Binding of Control serum LUMC to looped peptides / Binding of Control Serum Blood-Bank to Looped peptides / Binding of Control serum LUMC to linear peptides of the protein M of SARS-CoV Urbani / Binding of Control serum Blood-bank to linear peptides of the protein M of SARS-CoV Urbani / Binding of Control serum LUMC to looped peptides of the protein M of SARS-CoV Urbani / Binding of Control Serum Blood-Bank to Looped peptides of the protein M of SARS-CoV Urbani: unit not given here
[2] = system: rabbit serum obtained by immunizing a rabbit with the SARS-CoV strain Frankfurt 1; format: binding; set-up: Binding of a rabbit serum to linear peptides / Binding of a rabbit serum to looped peptides / Rabbit serum linear peptides / Rabbit serum looped peptides / Binding of a rabbit serum to linear peptides of protein N of SARS-CoV Urbani (Rabbit serum linear peptides) / Binding of a rabbit serum to looped/cyclic peptides of protein N of SARS-CoV Urbani (Rabbit serum looped peptides): unit not given here
[3] = system: antibodies in sera from SARS patients (sera 1a, 1b, 2, 6, 37, 62, London, SARS-yellow, SARS-green); format: binding, human; set-up: Binding of serum 6 to linear peptides of protein X1 of SARS-CoV Urbani / Binding of serum 37 to linear peptides of protein X1 of SARS-CoV Urbani / Binding of serum 6 to looped/cyclic peptide (PEPSCAN-ELISA) / Binding of serum 37 to looped/cyclic peptide (PEPSCAN-ELISA) / Binding of serum 37 to looped/cyclic peptides of protein X1 of SARS-CoV Urbani / Binding of serum 6 to linear peptides of protein X2 / Binding of serum 37 to linear peptides of protein X2 / Binding of serum 37 to looped/cyclic peptides of protein X2 of SARS-CoV Urbani / Binding of serum 6 to linear peptides of protein M of SARS-CoV Urbani / Binding of serum 37 to linear peptides of protein M of SARS-CoV Urbani / Binding of serum 6 to looped/cyclic peptides of protein M of SARS-CoV Urbani / Binding of serum 37 to looped/cyclic peptides of protein M of SARS-CoV Urbani / Binding of serum 6 to linear peptides of protein X3 of SARS-CoV Urbani / Binding of serum 37 to linear peptides of protein X3 of SARS-CoV Urbani / Binding of serum 37 to looped/cyclic peptides of protein X3 of SARS-CoV Urbani / Binding of serum 6 to linear peptides of protein X4 of SARS-CoV Urbani / Binding of serum 37 to linear peptides of protein X4 of SARS-CoV Urbani / Binding of serum 37 to looped/cyclic peptides of protein X4 of SARS-CoV Urbani / Binding of serum 6 to linear peptides of protein X5 of SARS-CoV Urbani / Binding of serum 37 to linear peptides of protein X5 of SARS-CoV Urbani / Binding of serum 37 to looped/cyclic peptides of protein X5 of SARS-CoV Urbani / Binding of serum 6 to linear peptides of protein N of SARS-CoV Urbani / Binding of serum 37 to linear peptides of protein N of SARS-CoV Urbani / Binding of serum 6 to linear peptide (PEPSCAN-ELISA) / Binding of serum 1a to looped/cyclic peptides of protein N of SARS-CoV Urbani / Binding of serum 1b to looped/cyclic peptides of protein N of SARS-CoV Urbani / Binding of serum 2 to looped/cyclic peptides of protein N of SARS-CoV Urbani / Binding of serum 6 to looped/cyclic peptides of protein N of SARS-CoV Urbani / Binding of serum 37 to looped/cyclic peptides of protein N of SARS-CoV Urbani / Binding of serum 62 to looped/cyclic peptides of protein N of SARS-CoV Urbani / Binding of serum London to looped/cyclic peptides of protein N of SARS-CoV Urbani / Binding of serum SARS-green to looped/cyclic peptides of protein N of SARS-CoV Urbani: unit not given here

| Sequence | Binding of Control Serum Blood-Bank to Looped peptides [1] | Binding of Control serum Blood-bank to linear peptides [1] | Binding of Control serum LUMC to linear peptides [1] | Binding of Control serum LUMC to looped peptides [1] | Binding of a rabbit serum to linear peptides [2] | Binding of a rabbit serum to looped peptides [2] | Binding of serum 1a to linear peptides of protein X1 of SARS-CoV Urbani [3] | Binding of serum 1a to looped/cyclic peptide (PEPSCAN-ELISA) [3] | Binding of serum 1b to linear peptides of protein X1 of SARS-CoV Urbani [3] | Binding of serum 1b to looped/cyclic peptide (PEPSCAN-ELISA) [3] | Binding of serum 2 to linear peptides of protein X1 of SARS-CoV Urbani [3] | Binding of serum 2 to looped/cyclic peptide (PEPSCAN-ELISA) [3] | Binding of serum 6 to linear peptides of protein X1 of SARS-CoV Urbani [3] | Binding of serum 6 to looped/cyclic peptide (PEPSCAN-ELISA) [3] | Binding of serum 37 to linear peptides of protein X1 of SARS-CoV Urbani [3] | Binding of serum 37 to looped/cyclic peptide (PEPSCAN-ELISA) [3] | Binding of serum 62 to linear peptides of protein X1 of SARS-CoV Urbani [3] | Binding of serum 62 to looped/cyclic peptide (PEPSCAN-ELISA) [3] | Binding of serum London to linear peptides of protein X1 of SARS-CoV Urbani [3] | Binding of serum London to looped/cyclic peptide (PEPSCAN-ELISA) [3] | further results |
| --- | --- | --- | --- | --- | --- | --- | --- | --- | --- | --- | --- | --- | --- | --- | --- | --- | --- | --- | --- | --- | --- |
| FLQCINACRIIMRCW | 0.6 | 0.8 | 0.9 | 0.6 | 0.1 | 0.8 | 0.8 | 0.6 | 0.6 | 0.4 | 0.6 | 0.5 | 0.7 | 0.7 | 0.7 | 0.6 | 0.6 | 0.6 | 0.3 | 1.0 | Binding of serum SARS-green to linear peptides of protein X1 of SARS-CoV Urbani [3]: 0.3; Binding of serum SARS-green to looped/cyclic peptide (PEPSCAN-ELISA) [3]: 0.2; Binding of serum SARS-yellow to linear peptides of protein X1 of SARS-CoV Urbani [3]: 0.4; Binding of serum SARS-yellow to looped/cyclic peptide (PEPSCAN-ELISA) [3]: 0.6 |
| FLYIIKLVFLWLLWP |  |  |  |  |  |  |  |  |  |  |  |  |  |  |  |  |  |  |  |  | Binding of Control Serum Blood-Bank to Looped peptides of the protein M of SARS-CoV Urbani [1]: 0.8; Binding of Control serum Blood-bank to linear peptides of the protein M of SARS-CoV Urbani [1]: 0.8; Binding of Control serum LUMC to linear peptides of the protein M of SARS-CoV Urbani [1]: 0.4; Binding of Control serum LUMC to looped peptides of the protein M of SARS-CoV Urbani [1]: 0.9; Rabbit serum linear peptides [2]: 0.4; Rabbit serum looped peptides [2]: 0.4; Binding of serum 1a to linear peptides of protein M of SARS-CoV Urbani [3]: 0.8; Binding of serum 1b to linear peptides of protein M of SARS-CoV Urbani [3]: 0.5; Binding of serum 2 to linear peptides of protein M of SARS-CoV Urbani [3]: 1.0; Binding of serum 6 to linear peptides of protein M of SARS-CoV Urbani [3]: 0.3; Binding of serum 37 to linear peptides of protein M of SARS-CoV Urbani [3]: 0.8; Binding of serum 62 to linear peptides of protein M of SARS-CoV Urbani [3]: 0.9; Binding of serum London to linear peptides of protein M of SARS-CoV Urbani [3]: 0.3; Binding of serum SARS-green to linear peptides of protein M of SARS-CoV Urbani [3]: 0.3; Binding of serum SARS-yellow to linear peptides of protein M of SARS-CoV Urbani [3]: 0.1; Recognition of the peptide by sera of SARS-CoV infected individuals, and form (linear, looped/cyclic) in which it is recognized [3]: recognized in looped/cyclic form |
| FLYLYALIYFLQCIN | 0.5 | 0.5 | 0.5 | 0.4 | 0.1 | 0.4 | 0.7 | 0.4 | 0.5 | 0.3 | 0.5 | 0.3 | 0.4 | 0.2 | 0.5 | 0.4 | 0.6 | 0.4 | 0.2 | 0.2 | Binding of serum SARS-green to linear peptides of protein X1 of SARS-CoV Urbani [3]: 0.2; Binding of serum SARS-green to looped/cyclic peptide (PEPSCAN-ELISA) [3]: 0.2; Binding of serum SARS-yellow to linear peptides of protein X1 of SARS-CoV Urbani [3]: 0.5; Binding of serum SARS-yellow to looped/cyclic peptide (PEPSCAN-ELISA) [3]: 0.3 |
| FMRFFTLGSITAQPV | 0.6 | 0.7 | 0.7 | 0.6 | 0.3 | 0.4 | 0.8 | 0.5 | 0.6 | 0.3 | 0.8 | 0.4 | 0.5 | 0.4 | 0.7 | 0.5 | 0.7 | 0.5 | 0.3 | 0.2 | Binding of serum SARS-green to linear peptides of protein X1 of SARS-CoV Urbani [3]: 0.3; Binding of serum SARS-green to looped/cyclic peptide (PEPSCAN-ELISA) [3]: 0.2; Binding of serum SARS-yellow to linear peptides of protein X1 of SARS-CoV Urbani [3]: 0.7; Binding of serum SARS-yellow to looped/cyclic peptide (PEPSCAN-ELISA) [3]: 0.3 |
